# Reference: US20180265515A1 (Genentech, Inc., priority 2015, published 2018)
# Legend:
# [1] = target: T1, isolated recombinant JAK2 kinase domain (Homo sapiens, UniProt O60674); experiment: JAK2 enzyme assay (Caliper LabChip, Ki); format: biochemical; conditions: 25 μM ATP
# T1 construct: The activity of the isolated recombinant JAK1 and JAK2 kinase domain was measured
# Method: (§1) JAK Enzyme Assays were Carried Out as Follows:
# (§2) The activity of the isolated recombinant JAK1 and JAK2 kinase domain was measured by monitoring phosphorylation of a peptide derived from JAK3 (Val-Ala-Leu-Val-Asp-Gly-Tyr-Phe-Arg-Leu-Thr-Thr, fluorescently labeled on the N-terminus with 5-carboxyfluorescein) using the Caliper LabChip® technology (Caliper Life Sciences, Hopkinton, Mass.). […] Reactions were incubated at 22° C. in 384-well polypropylene microtiter plates for 30 minutes and then stopped by addition of 25 μL of an EDTA containing solution (100 mM HEPES buffer (pH 7.2), 0.015% Brij-35, 150 mM EDTA), resulting in a final EDTA concentration of 50 mM. After termination of the kinase reaction, the proportion of phosphorylated product was determined as a fraction of total peptide substrate using the Caliper LabChip® 3000 according to the manufacturer's specifications. Ki values were then determined using the Morrison tight binding model (Morrison, J. F., Biochim. Biophys. Acta. 185:269-296 (1969); William, J. W. and Morrison, J. F., Meth. Enzymol., 63:437-467 (1979)) modified for ATP-competitive inhibition [Ki=Ki,app/(1+[ATP]/Km,app)].
# [2] = test system: JAK1-dependent STAT6 phosphorylation downstream of IL-13 stimulation in BEAS-2B human bronchial epithelial cells; experiment: JAK1 pathway assay in BEAS-2B cells (IL-13 stimulated STAT6 phosphorylation, MSD); format: cell-based; conditions: read-out: P-STAT6 BEAS2B + IL13 IC50
# Method: JAK1 Pathway Assay in Cell Lines was Carried Out as Follows:
# Inhibitor potency (EC50) was determined in cell-based assays designed to measure JAK1 dependent STAT phosphorylation. As noted above, inhibition of IL-4, IL-13, and IL-9 signaling by blocking the Jak/Stat signaling pathway can alleviate asthmatic symptoms in pre-clinical lung inflammation models (Mathew et al., 2001, J Exp Med 193(9): 1087-1096; Kudlacz et. al., 2008, Eur J. Pharmacol 582(1-3): 154-161).
# In one assay approach, TF-1 human erythroleukemia cells obtained from the American Type Culture Collection (ATCC; Manassas, Va.) were used to measure JAK1-dependent STAT6 phosphorylation downstream of IL-13 stimulation. Prior to use in the assays, TF-1 cells were starved of GM-CSF overnight in OptiMEM medium (Life Technologies, Grand Island, N.Y.) supplemented with 0.5% charcoal/dextran stripped fetal bovine serum (FBS), 0.1 mM non-essential amino acids (NEAA), and 1 mM sodium pyruvate. The assays were run in 384-well plates in serum-free OptiMEM medium using 300,000 cells per well. In a second assay approach, BEAS-2B human bronchial epithelial cells obtained from ATCC were plated at 100,000 cells per well of a 96-well plate one day prior to the experiment. The BEAS-2B assay was run in complete growth medium (bronchial epithelial basal medium plus bulletkit; Lonza; Basel, Switzerland).
# Test compounds were serially diluted 1:2 in DMSO and then diluted 1:50 in medium just before use. Diluted compounds were added to the cells, for a final DMSO concentration of 0.2%, and incubated for 30 min (for the TF-1 assay) or 1 hr (for the BEAS-2B assay) at 37° C. Then, cells were stimulated with human recombinant cytokine at their respective EC90 concentrations, as previously determined for each individual lot. Cells were stimulated with IL-13 (R&D Systems, Minneapolis, Minn.) for 15 min at 37° C. The TF-1 cell reactions were stopped by the direct addition of 10× lysis buffer (Cell Signaling Technologies, Danvers, Mass.), whereas the BEAS-2B cell incubations were halted by the removal of medium and addition of 1× lysis buffer. The resultant samples were frozen in the plates at −80° C. Compound mediated inhibition of STAT6 phosphorylation was measured in the cell lysates using MesoScale Discovery (MSD) technology (Gaithersburg, Md.). EC50 values were determined as the concentration of compound required for 50% inhibition of STAT phosphorylation relative to that measured for the DMSO control.
# [3] = target: T2, isolated recombinant JAK1 kinase domain (Homo sapiens, UniProt P23458); experiment: JAK1 enzyme assay (Caliper LabChip, Ki); format: biochemical; conditions: recombinant JAK1 kinase domain, 25 μM ATP
# T2 construct: The activity of the isolated recombinant JAK1 and JAK2 kinase domain was measured
# Method: as §1, §2
# T1 sequence (O60674 849-1124 limits assumed): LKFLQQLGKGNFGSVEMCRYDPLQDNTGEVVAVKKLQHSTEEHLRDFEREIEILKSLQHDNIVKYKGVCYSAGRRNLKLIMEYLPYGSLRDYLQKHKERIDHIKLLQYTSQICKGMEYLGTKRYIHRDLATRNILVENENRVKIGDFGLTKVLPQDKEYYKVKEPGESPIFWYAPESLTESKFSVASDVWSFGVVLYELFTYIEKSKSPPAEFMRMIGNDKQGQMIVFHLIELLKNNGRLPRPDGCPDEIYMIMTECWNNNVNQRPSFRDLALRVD
# T2 sequence (P23458 875-1153 limits assumed): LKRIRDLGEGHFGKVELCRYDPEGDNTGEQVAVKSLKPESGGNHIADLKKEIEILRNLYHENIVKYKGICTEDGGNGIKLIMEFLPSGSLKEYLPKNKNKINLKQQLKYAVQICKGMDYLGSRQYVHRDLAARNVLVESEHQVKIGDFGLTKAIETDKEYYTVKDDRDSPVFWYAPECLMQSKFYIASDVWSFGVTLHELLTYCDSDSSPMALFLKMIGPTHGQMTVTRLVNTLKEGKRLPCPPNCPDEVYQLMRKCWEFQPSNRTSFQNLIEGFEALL
Structure (SMILES),Ki [1] [nM],IC50 [2] [nM],Ki [3] [nM]
"CC(C)(C#N)CNC1CCN(C(=O)Cn2cc(NC(=O)c3cnn4cccnc34)c(-c3cc(SC4COC4)ccc3OC(F)F)n2)CC1 [Example 186, N-[1-[2-[4-[(2-cyano-2-methyl-propyl)amino]-1-piperidyl]-2-oxo-ethyl]-3-[2-(difluoromethoxy)-5-(oxetan-3-ylsulfanyl)phenyl]pyrazol-4-yl]pyrazolo[1,5-a]pyrimidine-3-carboxamide]",1.8,90,0.65
"CC(C)Sc1ccc(OC(F)F)c(-c2nn(CC(=O)N3CCC(N(C)C4COC4)CC3)cc2NC(=O)c2cnn3cccnc23)c1 [Example 110, N-[3-[2-(difluoromethoxy)-5-isopropylsulfanyl-phenyl]-1-[2-[4-[methyl(oxetan-3-yl)amino]-1-piperidyl]-2-oxo-ethyl]pyrazol-4-yl]pyrazolo[1,5-a]pyrimidine-3-carboxamide]",1,27,0.41
"CSc1ccc(OC(F)F)c(-c2nn(CC(=O)N3CCC(N4CCOC[C@@H]4C)CC3)cc2NC(=O)c2cnn3cccnc23)c1 [Example 61, N-[3-[2-(difluoromethoxy)-5-methylsulfanyl-phenyl]-1-[2-[4-[(3S)-3-methylmorpholin-4-yl]-1-piperidyl]-2-oxo-ethyl]pyrazol-4-yl]pyrazolo[1,5-a]pyrimidine-3-carboxamide]",0.48,13,0.25
"CSc1ccc(OC(F)F)c(-c2nn(CC(=O)N3CCN(C4CCOCC4)CC3)cc2NC(=O)c2cnn3cccnc23)c1 [Example 53, N-[3-[2-(difluoromethoxy)-5-methylsulfanyl-phenyl]-1-[2-oxo-2-(4-tetrahydropyran-4-ylpiperazin-1-yl)ethyl]pyrazol-4-yl]pyrazolo[1,5-a]pyrimidine-3-carboxamide]",0.32,12,0.27
"COCC(=O)N1CCN(CC2CCN(C(=O)Cn3cc(NC(=O)c4cnn5cccnc45)c(-c4cc(SC)ccc4OC(F)F)n3)CC2)CC1 [Example 82, N-[3-[2-(difluoromethoxy)-5-methylsulfanyl-phenyl]-1-[2-[4-[[4-(2-methoxyacetyl)piperazin-1-yl]methyl]-1-piperidyl]-2-oxo-ethyl]pyrazol-4-yl]pyrazolo[1,5-a]pyrimidine-3-carboxamide]",0.41,34,0.29
"CSc1ccc(OC(F)F)c(-c2nn(CC(=O)N3CCC(CN4CCN(C(C)=O)CC4)CC3)cc2NC(=O)c2cnn3cccnc23)c1 [Example 80, N-[1-[2-[4-[(4-acetylpiperazin-1-yl)methyl]-1-piperidyl]-2-oxo-ethy]-3-[2-(difluoromethoxy)-5-methylsulfanyl-phenyl]pyrazol-4-yl]pyrazolo[1,5-a]pyrimidine-3-carboxamide]",0.43,16,0.26
"Cn1cc(NC(=O)c2cnn3cccnc23)c(-c2cc(SC(CF)CF)ccc2OC(F)F)n1 [Example 159, N-[3-[2-(difluoromethoxy)-5-[(1,3-difluoropropan-2-yl)sulfanyl]phenyl]-1-methyl-1H-pyrazol-4-yl]pyrazolo[1,5-a]pyrimidine-3-carboxamide]",0.097,3.9,0.16
"CC(=O)N1CCN(CC2CCN(C(=O)Cn3cc(NC(=O)c4cnn5cccnc45)c(-c4cc(SC5CC5)ccc4OC(F)F)n3)CC2)CC1 [Example 172, N-[1-[2-[4-[(4-acetylpiperazin-1-yl)methyl]-1-piperidyl]-2-oxo-ethyl]-3-[5-cyclopropylsulfanyl-2-(difluoromethoxy)phenyl]pyrazol-4-yl]pyrazolo[1,5-a]pyrimidine-3-carboxamide]",0.91,32,0.45
"CSc1ccc(OC(F)F)c(-c2nn(CC(=O)N3CCC(N4CCOCC4)CC3)cc2NC(=O)c2cnn3cccnc23)c1 [Example 5, N-(3-(2-(difluoromethoxy)-5-(methylthio)phenyl)-1-(2-(4-morpholinopiperidin-1-yl)-2-oxoethyl)-1H-pyrazol-4-yl)pyrazolo[1,5-a]pyrimidine-3-carboxamide]",0.4,15,0.29
"O=C(Nc1cn(CC(=O)N2CCN(CC3CCOCC3)CC2)nc1-c1cc(SC2CC2)ccc1OC(F)F)c1cnn2cccnc12 [Example 165, N-[3-[5-cyclopropylsulfanyl-2-(difluoromethoxy)phenyl]-1-[2-oxo-2-[4-(tetrahydropyran-4-ylmethyl)piperazin-1-yl]ethyl]pyrazol-4-yl]pyrazolo[1,5-a]pyrimidine-3-carboxamide]",0.67,20,0.4
"CSc1ccc(OC(F)F)c(-c2nn(CC(=O)N3CCC(N4CCN(C5CCOCC5)CC4)CC3)cc2NC(=O)c2cnn3cccnc23)c1 [Example 70, N-[3-[2-(difluoromethoxy)-5-methylsulfanyl-phenyl]-1-[2-oxo-2-[4-(4-tetrahydropyran-4-ylpiperazin-1-yl)-1-piperidyl]ethyl]pyrazol-4-yl]pyrazolo[1,5-a]pyrimidine-3-carboxamide]",0.82,38,0.42
"CN1CCC[C@@H]1Cn1cc(NC(=O)c2cnn3cccnc23)c(-c2cc(SC3COC3)ccc2OC(F)F)n1 [Example 176, N-[3-[2-(difluoromethoxy)-5-(oxetan-3-ylsulfanyl)phenyl]-1-[[(2R)-1-methylpyrrolidin-2-yl]methyl]pyrazol-4-yl]pyrazolo[1,5-a]pyrimidine-3-carboxamide]",1.4,28,0.38
"CSc1ccc(OC(F)F)c(-c2nn(CC(=O)N3CCC(N(C)CC(C)(C)C#N)CC3)cc2NC(=O)c2cnn3cccnc23)c1 [Example 26, N-[1-[2-[4-[(2-cyano-2-methyl-propyl)-methyl-amino]-1-piperidyl]-2-oxo-ethyl]-3-[2-(difluoromethoxy)-5-methylsulfanyl-phenyl]pyrazol-4-yl]pyrazolo[1,5-a]pyrimidine-3-carboxamide]",0.39,12,0.24
"CSc1ccc(OC(F)F)c(-c2nn(CC(=O)N3CCC(NCCCC#N)CC3)cc2NC(=O)c2cnn3cccnc23)c1 [Example 64, N-[1-[2-[4-(3-cyanopropylamino)-1-piperidyl]-2-oxo-ethyl]-3-[2-(difluoromethoxy)-5-methylsulfanyl-phenyl]pyrazol-4-yl]pyrazolo[1,5-a]pyrimidine-3-carboxamide]",0.48,52,0.33
"CSc1ccc(OC(F)F)c(-c2nn(C3(CC#N)CN(C(=O)OC(C)(C)C)C3)cc2NC(=O)c2cnn3cccnc23)c1 [Example 78, tert-butyl 3-(cyanomethyl)-3-[3-[2-(difluoromethoxy)-5-methylsulfanyl-phenyl]-4-(pyrazolo[1,5-a]pyrimidine-3-carbonylamino)pyrazol-1-yl]azetidine-1-carboxylate]",0.72,69,0.92
"CSc1ccc(OC(F)F)c(-c2nn(CC(=O)N3CCC(CN4CCN(C(=O)CN(C)C)CC4)CC3)cc2NC(=O)c2cnn3cccnc23)c1 [Example 74, N-[3-[2-(difluoromethoxy)-5-methylsulfanyl-phenyl]-1-[2-[4-[[4-[2-(dimethylamino)acetyl]piperazin-1-yl]methyl]-1-piperidyl]-2-oxo-ethyl]pyrazol-4-yl]pyrazolo[1,5-a]pyrimidine-3-carboxamide]",0.58,50,0.3
